Data from patent US20220168276A1, “Mehods and Compositions for Treating SARS-CoV-2 Infection using Carboxyamidotriazole Orotate” (priority 2020, published 2022).
“Also recorded” adds a separate entry of the source.

Legend:
[1] = cited from earlier work
human T-cells = settings: cited from earlier work
[2] = in vivo; cited from earlier work
[3] = test system: imatinib mesylate-resistant chronic myeloid leukemia cells; settings: by down-regulating bcr-abl; cited from earlier work
[4] = test system: non-infected Vero E6 cells; format: cell-based; settings: cell viability, read-out: EC 50 in non-infected Vero E6 cells
SARS-CoV-2 [5] = settings: Vero E6 cells
SARS-CoV-2 [6] = format: in vivo; settings: one patient, 600 mg daily oral, second day
Cytokines in plasma = assay: Phase I trial of CTO in cancer patients: plasma cytokine levels by Milliplex/Luminex panel; format: in vivo, human; design: key to GM-CSF plasma level / IFNα2 plasma level / IFNγ plasma level / IL-10 plasma level / IL-12p40 plasma level / IL-12p70 plasma level / IL-13 plasma level / IL-15 plasma level / IL-17A plasma level / IL-1RA plasma level / IL-2 plasma level / IL-4 plasma level / IL-6 plasma level / IL-8 plasma level / IP-10 plasma level / MIP1a plasma level / RANTES plasma level / IL-1β plasma level / TNFα plasma level / VEGF plasma level / EGF plasma level: + increased; − decreased
Description: Such an approach described above is based on unexpected findings when CTO was given to cancer patients who volunteered to participate in Phase I clinical studies of CTO to establish its safety and tolerability.
In a Phase I trial of CTO testing the safety and tolerability of CTO in cancer patients, Plasa samples were obtained from three patients after administration of different doses of CTO daily as follows: 1) NSCLC Patient 002-46 (CTO 555 mg/m2), 2) NSCLC Patient 002-50 (CTO 427 mg/m2) and 3) Ovarian Cancer Patient 002-53(CTO 427 mg/m2) The levels of cytokines were measured by using the HCYTMAG-60K-PX30/Milliplex MAP Human Cytokine/Chemokine Magnetic Bead Panel from Milliplex, USA.

[7] = test system: Akt and Erk1/2 phosphorylation; settings: exosomes stimulated HUVEC cell; cited from earlier work
[8] = cancer patients, CTO 427-555 mg/m2 daily, vs baseline

For NC(=O)c1nnn(Cc2cc(Cl)c(C(=O)c3ccc(Cl)cc3)c(Cl)c2)c1N [CAI, carboxyamidotriazole], the “colitis scored macroscopically and microscopically” value ([1]; animals) is listed as “inhibited”, the NF-kB activation ([1]; in vivo) is listed as “prevented” and the “production of fibrinogenic cytokine transforming growth factor β” value ([1]; in vivo) is listed as “inhibited”. The “production of TNF-α, IL-1β and IL-6” value ([1]; serum, supernatant of peritoneal macrophages and lamina propria) was “inhibited”, the “calcium influx and HIV LTR transcription dependent on it” value (human T-cells) was “modulated” and the “TNF-α and IL-1β at the site of inflammation and in serum” value [2] was “decreased”. For the same compound, the “vascular permeability stimulated by VEGF or histamine” value [2] was “inhibited” and the apoptosis [3] was “induces apoptosis”.
Work on NC(=O)c1nnn(Cc2cc(Cl)c(C(=O)c3ccc(Cl)cc3)c(Cl)c2)c1N.O=C(O)c1cc(=O)[nH]c(=O)[nH]1 [CTO, 5-amino-1-(4-(4-chlorobenzyl)-1,2,3-triazole-4-carboxamide orotate] yielded an EC50 [4] of 14.9 µM and an IC50 (SARS-CoV-2 [5]; read-out: IC50, cytopathic effect (CPE) for SARS-CoV-2, 72 hours post-inoculation, 20 μM highest dose tested) greater than 20 µM.
In the case of NC(=O)c1nnn(Cc2cc(Cl)c(C(=O)c3ccc(Cl)cc3)c(Cl)c2)c1N.O=C(O)c1cc(=O)[nH]c(=O)[nH]1 [CTO], the COVID-19 symptoms (SARS-CoV-2 [6]) is reported as “great improvement in most of the symptoms”, the body weight (SARS-CoV-2 [6]; lost twelve pounds before treatment) is reported as “remained at constant weight” and the EGF plasma level (Cytokines in plasma; [8]) is reported as “EGF- (+)”. For the same compound, the GM-CSF plasma level (Cytokines in plasma; [8]) was “GM-CSF- (−)”, the IFNα2 plasma level (Cytokines in plasma; [8]) was “IFNα2- (+)” and the IFNγ plasma level (Cytokines in plasma; [8]) was “IFNγ- (−)”. For the same compound, the IL-1RA plasma level (Cytokines in plasma; [8]) was “IL-1RA- (−)”, the IL-1β plasma level (Cytokines in plasma; [8]) was “**IL-1β- (−)” and the IL-2 plasma level (Cytokines in plasma; [8]) was “IL-2- (−)”. For the same compound, the IL-4 plasma level (Cytokines in plasma; [8]) was “IL-4- (−)”, the IL-6 plasma level (Cytokines in plasma; [8]) was “IL-6- (−)” and the IL-8 plasma level (Cytokines in plasma; [8]) was “IL-8-(−)”. The IL-10 plasma level (Cytokines in plasma; [8]) was “IL-10- (+)”, the IL-12p40 plasma level (Cytokines in plasma; [8]) was “IL-12p40- (+)” and the IL-12p70 plasma level (Cytokines in plasma; [8]) was “IL-12p70- (−)”. The IL-13 plasma level (Cytokines in plasma; [8]) was “IL-13-(−)”, the IL-15 plasma level (Cytokines in plasma; [8]) was “IL-15- (−)” and the IL-17A plasma level (Cytokines in plasma; [8]) was “IL-17A- (−)”. For the same compound, the IP-10 plasma level (Cytokines in plasma; [8]) was “IP-10- (−)”, the MIP1a plasma level (Cytokines in plasma; [8]) was “MIP1a- (−)” and the RANTES plasma level (Cytokines in plasma; [8]) was “RANTES- (+)”. For the same compound, the TNFα plasma level (Cytokines in plasma; [8]) was “**TNFα- (−)”, the VEGF plasma level (Cytokines in plasma; [8]) was “VEGF- (−)” and the “levels of cytokines including EGF, IFN α2, IL-10, IL-12p40” value (Cytokines in plasma; plasma, CTO 427 mg/m2 to 555 mg/m2) was “increase”. The “levels of several cytokines including VEGF, GM-CSF, INF-γ, IL-2, IL-12p70, IL-13, IL-15, IL-17a, IL-1RA, IL-1α, IL-2, IL1-4, IL-6, IL-8, il-10, MIP1-α, IL-1β, TNF-α” value (Cytokines in plasma; plasma, CTO 427 mg/m2 to 555 mg/m2, forty-eight hours interval after CTO, vs baseline) was “reduced; also recorded: reduction”, the “Akt and Erk1/2 phosphorylation” value [7] was “inhibits” and the “concentration up to which CTO inhibited replication of SARS-CoV-2” value (SARS-CoV-2 [5]) was “up to 5 μM”. For the same compound, the cell viability (SARS-CoV-2 [5]; CTO up to 5 μM) was “above 90%” and the “Maximum % Inhibition of CPE” value (SARS-CoV-2 [5]; recorded <20 μM concentration) was 29.03%.
